# Source: publication PMC12140300, “Development of Carbon‐11 Labeled Pyrimidine Derivatives as Novel Positron Emission Tomography (PET) Agents Enabling Brain Sigma‐1 Receptor Imaging” (Advanced Science, 2025)
# System: σ1R
# Assay: NHP PET/MR imaging with kinetic modelling, baseline and self-blocking
# Format: in vivo
# Conditions: for VT, One tissue compartment model [1TCM] / VT, Two tissue compartment model [2TCM] / VT, Logan graphical method [T* = 40 min]: male NHP brain
# From the text: Next, we conducted PET/MR imaging studies using [^11C]CNY‐01 in non‐human primates (NHP) to evaluate its safety and translational potential in large animals further. A 90‐minute dynamic PET scan with [^11C]CNY‐01 focusing on the head of a male rhesus monkey. We performed a full kinetic analysis with one‐ and two‐tissue compartment models (1TCM and 2TCM), as well as logan graphical analysis (LGA), using metabolite‐corrected arterial input function (AIF), similar to previous studies,^[ [44], [45] ^] to determine which model best suit kinetics of [^11C]CNY‐01. In most brain regions, 2TCM provided a better fit than 1TCM, as indicated by the Akaike information criterion (AIC) and model selection criterion (MSC) (Table 1). […] To test whether non‐parametric graphical approaches can be used for [^11C]CNY‐01, we performed LGA with an assumption of steady‐state time (T*) of 40 mins (Table 1). […] For voxel‐wise estimation of VT across the whole brain, we then used LGA (Figure 4A).
# We also performed a self‐blocking scan for [^11C]CNY‐01, administering 0.5 mg kg^−1 of unlabeled CNY‐01 10 min before the radiotracer. The metabolism of the radiotracer in the blocking scan was similar to that of the baseline (Figure S6, Supporting Information). The radioactivity concentration was lower in arterial blood samples in the blocking scan compared to the baseline, while brain uptake was higher in the blocking scan (Figure S6, Supporting Information). […] The variation of the radiotracer plasma protein binding (fp) between baseline and blocking scan may explain our observation in a way similar to that of the previous study.^[ [46] ^] Nonetheless, due to this study's lack of fp data, the exact explanation for our observation remains to be determined further.
# The PET/MR imaging protocol in non‐human primates (NHP) followed our previous work.^[ [55], [56] ^] A male rhesus macaque (8.55 kg) was anesthetized with an intramuscular injection of xylazine (0.5–2.0 mg kg^−1) and ketamine (10 mg kg^−1), followed by endotracheal intubation. V‐ and A‐lines were inserted, and anesthesia was maintained using isoflurane. [^11C] CNY‐01 was administered after antecubital catheterization, with an arterial line prepared for radiometabolite analysis. In the self‐blocking scan, the same animal (6.80 kg) was scanned with a 10‐min pre‐treatment of 0.5 mg kg^−1 unlabeled CNY‐01. PET/MR imaging data were acquired using a Siemens TIM‐Trio scanner (3T) equipped with a Siemens BrainPET insert module and an in‐house‐built 8‐channel head coil. The dynamic scan began, followed by administration of [^11C] CNY‐01 (5.1 mCi). The list mode data were reconstructed using the 3D ordinary Poisson expectation‐maximization algorithm (16 subsets and 6 iterations) with detector efficiency, decay, dead time, random coincidences, scatter, and attenuation corrections with gradually increasing time frams. All images were reconstructed into 153 slices with 256 × 256 pixels and 1.25‐mm isotropic voxel size. High‐resolution structural MRI scans were acquired by using a multi‐echo magnetization‐prepared rapid gradient echo (ME‐MPRAGE) sequence with parameters as follows: TR = 2400 ms; TE1/TE2/TE3/TE4 = 1.57/3.29/5.01/6.73 ms; inversion time = 1200 ms; flip angle = 9°; spatial resolution = 1 mm isotropic.
# For macaque brain PET/MR imaging analysis, we applied the INIA19 Template^[ [57] ^] and NeuroMaps Atlas in accordance with our prior work.^[ [58] ^] In brief, reconstructed PET images were registered to the INIA19 Primate Brain Atlas^[ [57] ^] with the following processing steps^[ [59] ^]: The high‐resolution T1‐weighted MR image, co‐registered with the PET image, was first affine‐registered to the INIA19 atlas. By using the same transformation, dynamic PET data was registered to the atlas. A spatial smoothing with a 6‐mm FWHM Gaussian kernel was applied to PET images. Twenty ROIs determined in the INIA19 atlas were used to derive regional TACs. […]
# [1] = NAc, 10-min pretreatment of unlabeled CNY-01 (0.5 mg kg^−1)
# [2] = Occg, 10-min pretreatment of unlabeled CNY-01 (0.5 mg kg^−1)
# [3] = Ofc, 10-min pretreatment of unlabeled CNY-01 (0.5 mg kg^−1)
# [4] = PCC, 10-min pretreatment of unlabeled CNY-01 (0.5 mg kg^−1)
# [5] = Putamen, 10-min pretreatment of unlabeled CNY-01 (0.5 mg kg^−1)
# [6] = Sensory, 10-min pretreatment of unlabeled CNY-01 (0.5 mg kg^−1)
# [7] = Thalamus, 10-min pretreatment of unlabeled CNY-01 (0.5 mg kg^−1)
# [8] = VTA, 10-min pretreatment of unlabeled CNY-01 (0.5 mg kg^−1)
# [9] = WB, 10-min pretreatment of unlabeled CNY-01 (0.5 mg kg^−1)
# [10] = WM, 10-min pretreatment of unlabeled CNY-01 (0.5 mg kg^−1)
compound,measurement,setting,value
Cc1nc(-c2ccc(O[11CH3])cc2)nc(OCCCN2CCCCC2)c1Cl [[^11C]CNY-01],"VT, One tissue compartment model [1TCM]","Motor, baseline",6.97 mL cm^−3
same,"VT, Two tissue compartment model [2TCM]","Motor, baseline",8.88 mL cm^−3
same,"VT, Logan graphical method [T* = 40 min]",[1],33.22 ml/cm^3
same,"VT, Two tissue compartment model [2TCM]",[1],26.92 ml/cm^3
same,"VT, Logan graphical method [T* = 40 min]","NAc, baseline",13.11 mL cm^−3
same,"VT, One tissue compartment model [1TCM]","NAc, baseline",9.85 mL cm^−3
same,"VT, Two tissue compartment model [2TCM]","NAc, baseline",11.85 mL cm^−3
same,nonspecific binding in blockage experiments,NHP,high nonspecific binding
same,binding to target within the imaging timeframe,"NHP, speculated from pharmacokinetic characteristics",predominantly irreversible
same,"VT, Logan graphical method [T* = 40 min]",[2],12.96 ml/cm^3
same,"VT, Two tissue compartment model [2TCM]",[2],11.84 ml/cm^3
same,"VT, Logan graphical method [T* = 40 min]","Occg, baseline",7.07 mL cm^−3
same,"VT, One tissue compartment model [1TCM]","Occg, baseline",5.24 mL cm^−3
same,"VT, Two tissue compartment model [2TCM]","Occg, baseline",6.28 mL cm^−3
same,"VT, Logan graphical method [T* = 40 min]",[3],20.65 ml/cm^3
same,"VT, Two tissue compartment model [2TCM]",[3],16.68 ml/cm^3
same,"VT, Logan graphical method [T* = 40 min]","Ofc, baseline",9.72 mL cm^−3
same,"VT, One tissue compartment model [1TCM]","Ofc, baseline",7.31 mL cm^−3
same,"VT, Two tissue compartment model [2TCM]","Ofc, baseline",9.24 mL cm^−3
same,"VT, Logan graphical method [T* = 40 min]",[4],27.31 ml/cm^3
same,"VT, Two tissue compartment model [2TCM]",[4],23.16 ml/cm^3
same,"VT, Logan graphical method [T* = 40 min]","PCC, baseline",12.38 mL cm^−3
same,"VT, One tissue compartment model [1TCM]","PCC, baseline",9.29 mL cm^−3
same,"VT, Two tissue compartment model [2TCM]","PCC, baseline",14.68 mL cm^−3
same,"VT, Logan graphical method [T* = 40 min]",[5],33.81 ml/cm^3
same,"VT, Two tissue compartment model [2TCM]",[5],27.99 ml/cm^3
same,"VT, Logan graphical method [T* = 40 min]","Putamen, baseline",15.02 mL cm^−3
same,"VT, One tissue compartment model [1TCM]","Putamen, baseline",11.56 mL cm^−3
same,"VT, Two tissue compartment model [2TCM]","Putamen, baseline",15.75 mL cm^−3
same,"VT, Logan graphical method [T* = 40 min]",[6],19.24 ml/cm^3
same,"VT, Two tissue compartment model [2TCM]",[6],16.21 ml/cm^3
same,"VT, Logan graphical method [T* = 40 min]","Sensory, baseline",8.75 mL cm^−3
same,"VT, One tissue compartment model [1TCM]","Sensory, baseline",6.73 mL cm^−3
same,"VT, Two tissue compartment model [2TCM]","Sensory, baseline",9.33 mL cm^−3
same,"VT, Logan graphical method [T* = 40 min]",[7],30.88 ml/cm^3
same,"VT, Two tissue compartment model [2TCM]",[7],25.02 ml/cm^3
same,"VT, Logan graphical method [T* = 40 min]","Thalamus, baseline",15.50 mL cm^−3
same,"VT, One tissue compartment model [1TCM]","Thalamus, baseline",10.94 mL cm^−3
same,"VT, Two tissue compartment model [2TCM]","Thalamus, baseline",19.46 mL cm^−3
same,"VT, Logan graphical method [T* = 40 min]",[8],26.74 ml/cm^3
same,"VT, Two tissue compartment model [2TCM]",[8],19.47 ml/cm^3
same,"VT, Logan graphical method [T* = 40 min]","VTA, baseline",12.11 mL cm^−3
same,"VT, One tissue compartment model [1TCM]","VTA, baseline",8.25 mL cm^−3
same,"VT, Two tissue compartment model [2TCM]","VTA, baseline",11.16 mL cm^−3
same,"VT, Two tissue compartment model [2TCM]","WB (whole brain), baseline",10.35 mL cm^−3
same,"VT, Logan graphical method [T* = 40 min]",[9],20.75 ml/cm^3
same,"VT, Two tissue compartment model [2TCM]",[9],16.75 ml/cm^3
same,"VT, Logan graphical method [T* = 40 min]","WB, baseline",9.82 mL cm^−3
same,"VT, One tissue compartment model [1TCM]","WB, baseline",7.44 mL cm^−3
same,"VT, Two tissue compartment model [2TCM]","WM (white matter), baseline",15.00 mL cm^−3
same,"VT, Logan graphical method [T* = 40 min]",[10],25.98 ml/cm^3
same,"VT, Two tissue compartment model [2TCM]",[10],21.29 ml/cm^3
same,"VT, Logan graphical method [T* = 40 min]","WM, baseline",11.98 mL cm^−3
same,"VT, One tissue compartment model [1TCM]","WM, baseline",9.00 mL cm^−3
